# What was measured:
# Type in all cases: in vivo
# [1] = tested on: morningglory (Ipomoea coccinea); assay: Test C pre/postemergence; conditions: for Morningglory plant response rating: scale 0 to 100 (0 no effect, 100 complete control)
# Method in brief: (§1)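 Visual injury ratings, 0 (no effect) to 100 (complete control), made 12 to 14 days after treatment by comparison with untreated controls. Greenhouse plants received test chemical in a surfactant-containing non-phytotoxic solvent, either preemergence on planted seeds or postemergence at the 1- to 4-leaf stage.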
# [2] = tested on: corn (Zea mays); assay: Test C pre/postemergence; conditions: for Corn plant response rating: scale 0 to 100 (0 no effect, 100 complete control)
# Method in brief: as §1
# [3] = tested on: woolly cupgrass (Eriochloa villosa); assay: Test C pre/postemergence; conditions: for Cupgrass, Woolly plant response rating: scale 0 to 100 (0 no effect, 100 complete control)
# Method in brief: as §1
# [4] = tested on: barnyardgrass (Echinochloa crus-galli); assay: Test C flooded paddy test; conditions: Flood
# Description: (§2) At the same time, plants selected from these crop and weed species and also winter barley (Hordeum vulgare), blackgrass (Alopecurus myosuroides), canarygrass (Phalaris minor), chickweed (Stellaria media), downy brome (Bromus tectorum), green foxtail (Setaria viridis), Italian ryegrass (Lolium multiflorum), wheat (Triticum aestivum), wild oat (Avena fatua) and windgrass (Apera spica-venti) were treated with postemergence applications of some of the test chemicals formulated in the same manner. Plants ranged in height from 2 to 18 cm (1- to 4-leaf stage) for postemergence treatments. Plant species in the flooded paddy test consisted of rice (Oryza sativa), umbrella sedge (Cyperus difformis), duck salad (Heteranthera limosa) and barnyardgrass (Echinochloa crus-galli) grown to the 2-leaf stage for testing. Treated plants and controls were maintained in a greenhouse for 12 to 14 days, after which time all species were compared to controls and visually evaluated. Plant response ratings, summarized in Table C, are based on a scale of 0 to 100 where 0 is no effect and 100 is complete control. A dash (-) response means no test result.
# [5] = tested on: duck salad (Heteranthera limosa); assay: Test C flooded paddy test; conditions: Flood, scale 0 to 100
# Description: as §2
# [6] = tested on: rice (Oryza sativa); assay: Test C flooded paddy test; conditions: Flood, scale 0 to 100
# Description: as §2
# [7] = tested on: umbrella sedge (Cyperus difformis); assay: Test C flooded paddy test; conditions: Flood, scale 0 to 100
# Description: as §2
# [8] = Postemergence, 250 g ai/ha, scale 0 to 100
# [9] = Postemergence, 500 g ai/ha, scale 0 to 100
# [10] = Preemergence, 62 g ai/ha, scale 0 to 100, 0 no effect, 100 complete control
# [11] = Preemergence, 125 g ai/ha, scale 0 to 100
# [12] = Preemergence, 250 g ai/ha, scale 0 to 100
# [13] = Preemergence, 500 g ai/ha, scale 0 to 100
# [14] = 500 g ai/ha, scale 0 to 100 (0 no effect, 100 complete control)
# [15] = Preemergence, 31 g ai/ha, scale 0 to 100, 0 no effect, 100 complete control
SMILES,"Morningglory plant response rating ([1]; Postemergence, 62 g ai/ha)","Morningglory plant response rating ([1]; Postemergence, 125 g ai/ha)","Plant response rating, Morningglory [1, 8]","Plant response rating, Morningglory [1, 10]","Plant response rating, Morningglory [1, 11]","Plant response rating, Morningglory [1, 12]","Corn plant response rating ([2]; Postemergence, 62 g ai/ha)","Corn plant response rating ([2]; Postemergence, 125 g ai/ha)","Plant response rating, Corn [2, 8]","Plant response rating, Corn [2, 10]","Plant response rating, Corn [2, 11]","Plant response rating, Corn [2, 12]","Cupgrass, Woolly plant response rating ([3]; Postemergence, 62 g ai/ha)","Cupgrass, Woolly plant response rating ([3]; Postemergence, 125 g ai/ha)","Plant response rating, Cupgrass, Woolly [3, 8]","Plant response rating, Cupgrass, Woolly [3, 10]","Plant response rating, Cupgrass, Woolly [3, 11]","Plant response rating, Cupgrass, Woolly [3, 12]","Plant response rating, Barnyardgrass ([4]; 62 g ai/ha, scale 0 to 100)","Plant response rating, Barnyardgrass ([4]; 125 g ai/ha, scale 0 to 100)",further results
CCCOC(=O)c1nc(C2CC2)nc(N)c1Br [Compound 15],90,95,100,95,100,100,15,15,55,0,15,45,0,50,65,0,20,85,0,0,"Plant response rating, Morningglory [1, 9]: 100; Plant response rating, Morningglory [1, 13]: 100; Plant response rating, Corn [2, 9]: 75; Plant response rating, Corn [2, 13]: 60; Plant response rating, Cupgrass, Woolly [3, 9]: 75; Plant response rating, Cupgrass, Woolly [3, 13]: 95; Plant response rating, Barnyardgrass ([4]; 250 g ai/ha, scale 0 to 100): 25; Plant response rating, Barnyardgrass [4, 14]: 75; Plant response rating, Ducksalad ([5]; 62 g ai/ha): 45; Plant response rating, Ducksalad ([5]; 125 g ai/ha): 45; Plant response rating, Ducksalad ([5]; 250 g ai/ha): 50; Plant response rating, Ducksalad ([5]; 500 g ai/ha): 85; Plant response rating, Rice ([6]; 62 g ai/ha): 0; Plant response rating, Rice ([6]; 125 g ai/ha): 0; Plant response rating, Rice ([6]; 250 g ai/ha): 20; Plant response rating, Rice ([6]; 500 g ai/ha): 50; Plant response rating, Sedge, Umbrella ([7]; 62 g ai/ha): 0; Plant response rating, Sedge, Umbrella ([7]; 125 g ai/ha): 0; Plant response rating, Sedge, Umbrella ([7]; 250 g ai/ha): 10; Plant response rating, Sedge, Umbrella ([7]; 500 g ai/ha): 25"
CCCCOC(=O)c1nc(C2CC2)nc(N)c1Br [Compound 16],95,100,100,95,100,100,0,20,55,15,20,75,0,0,65,0,15,65,0,0,"Plant response rating (scale of 0 to 100), Morningglory ([1]; Postemergence, 31 g ai/ha): 85; Plant response rating, Morningglory [1, 15]: 65; Plant response rating (scale of 0 to 100), Corn ([2]; Postemergence, 31 g ai/ha): 0; Plant response rating, Corn [2, 15]: 0; Plant response rating (scale of 0 to 100), Cupgrass, Woolly ([3]; Postemergence, 31 g ai/ha): 0; Plant response rating, Cupgrass, Woolly [3, 15]: 0; Plant response rating, Barnyardgrass ([4]; 250 g ai/ha, scale 0 to 100): 15; Plant response rating, Barnyardgrass [4, 14]: 50; Plant response rating, Ducksalad ([5]; 62 g ai/ha): 65; Plant response rating, Ducksalad ([5]; 125 g ai/ha): 65; Plant response rating, Ducksalad ([5]; 250 g ai/ha): 75; Plant response rating, Ducksalad ([5]; 500 g ai/ha): 85; Plant response rating, Rice ([6]; 62 g ai/ha): 0; Plant response rating, Rice ([6]; 125 g ai/ha): 0; Plant response rating, Rice ([6]; 250 g ai/ha): 0; Plant response rating, Rice ([6]; 500 g ai/ha): 65; Plant response rating, Sedge, Umbrella ([7]; 125 g ai/ha): 0; Plant response rating, Sedge, Umbrella ([7]; 250 g ai/ha): 50; Plant response rating, Sedge, Umbrella ([7]; 500 g ai/ha): 55"

# — patent US8802597B2, “Herbicidal pyrimidines” (E I du Pont de Nemours and Company, priority 2003, dated 2014)
